Test results from patent US9149038B2, “4-amino-6-(heterocyclic)picolinates and 6-amino-2-(heterocyclic)pyrimidine-4-carboxylates and their use as herbicides” (Dow AgroSciences LLC, priority 2013, dated 2015).
Where two headings read alike, the source gives them in different places.

Tests used:
[1] = test system: Key Broadleaf Weed and Crop Species; assay: Post-Emergent Test II: postemergent herbicidal activity, visual rating after 14 d (Table 7); format: in vivo; settings: post-emergence, 336 h; for pest or weed control at 35 g/ha: 35 g ai/ha; for pest or weed control at 70 g/ha: 70 g ai/ha; for pest or weed control at 140 g/ha: 140 g ai/ha
Outline: (§1)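 Visual scoring at 14 d, 0 (no injury) to 100 (complete kill), relative to untreated plants. Postemergent overhead track-sprayer application, 187 L/ha, at a top rate plus serial ½×–1/16× rates, to plants grown 7–21 d at about 23–29° C day under a 15 h photoperiod, then subirrigated.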

[2] = test system: Key Grass and Sedge Weeds as well as Grass Crops; assay: Post-Emergent Test II: postemergent herbicidal activity, visual rating after 14 d (Table 8); format: in vivo; settings: post-emergence, 336 h; for pest or weed control at 35 g/ha: 35 g ai/ha; for pest or weed control at 70 g/ha: 70 g ai/ha; for pest or weed control at 140 g/ha: 140 g ai/ha
Outline: as §1

[3] = lambsquarters (Chenopodium album), read-out: Visual Growth Reduction (%) 14 Days After Application CHEAL
[4] = oilseed rape, canola (Brassica napus), read-out: Visual Growth Reduction (%) 14 Days After Application BRSNN
[5] = redroot pigweed (Amaranthus retroflexus), read-out: Visual Growth Reduction (%) 14 Days After Application AMARE
[6] = sunflower (Helianthus annuus), read-out: Visual Growth Reduction (%) 14 Days After Application HELAN
[7] = velvetleaf (Abutilon theophrasti), read-out: Visual Growth Reduction (%) 14 Days After Application ABUTH
[8] = wild poinsettia (Euphorbia heterophylla), read-out: Visual Growth Reduction (%) 14 Days After Application EPHHL
[9] = barnyardgrass (Echinochloa crus-galli), read-out: Visual Growth Reduction (%) 14 Days After Application ECHCG
[10] = giant foxtail (Setaria faberi), read-out: Visual Growth Reduction (%) 14 Days After Application SETFA
[11] = maize, corn (Zea mays), read-out: Visual Growth Reduction (%) 14 Days After Application ZEAMX
[12] = rice (Oryza sativa), read-out: Visual Growth Reduction (%) 14 Days After Application ORYSA
[13] = wheat, spring (Triticum aestivum), read-out: Visual Growth Reduction (%) 14 Days After Application TRZAS
[14] = yellow nutsedge (Cyperus esculentus), read-out: Visual Growth Reduction (%) 14 Days After Application CYPES

| SMILES | pest or weed control at 35 g/ha [1, 3] [%] | pest or weed control at 70 g/ha [1, 3] [%] | pest or weed control at 140 g/ha [1, 3] [%] | pest or weed control at 35 g/ha [1, 4] [%] | pest or weed control at 70 g/ha [1, 4] [%] | pest or weed control at 140 g/ha [1, 4] [%] | pest or weed control at 35 g/ha [1, 5] [%] | pest or weed control at 70 g/ha [1, 5] [%] | pest or weed control at 140 g/ha [1, 5] [%] | pest or weed control at 35 g/ha [1, 6] [%] | pest or weed control at 70 g/ha [1, 6] [%] | pest or weed control at 140 g/ha [1, 6] [%] | pest or weed control at 35 g/ha [1, 7] [%] | pest or weed control at 70 g/ha [1, 7] [%] | pest or weed control at 140 g/ha [1, 7] [%] | pest or weed control at 35 g/ha [1, 8] [%] | pest or weed control at 70 g/ha [1, 8] [%] | pest or weed control at 140 g/ha [1, 8] [%] | pest or weed control at 35 g/ha [2, 9] [%] | pest or weed control at 70 g/ha [2, 9] [%] | other results |
| --- | --- | --- | --- | --- | --- | --- | --- | --- | --- | --- | --- | --- | --- | --- | --- | --- | --- | --- | --- | --- | --- |
| COc1cc(-c2nc(C(=O)O)c(Cl)c(N)c2F)cc2c1OCO2 [Compound 15] | 0 to 29 | 45 to 59 | 75 to 84 | 0 to 29 | 0 to 29 | 0 to 29 | 0 to 29 | 0 to 29 | 45 to 59 | 0 to 29 | 0 to 29 | 0 to 29 | 0 to 29 | 0 to 29 | 0 to 29 | 0 to 29 | 0 to 29 | 0 to 29 | 0 to 29 | 0 to 29 | pest or weed control at 140 g/ha [2, 9]: 0 to 29%; pest or weed control at 35 g/ha [2, 10]: 0 to 29%; pest or weed control at 70 g/ha [2, 10]: 0 to 29%; pest or weed control at 140 g/ha [2, 10]: 0 to 29%; pest or weed control at 35 g/ha [2, 11]: 0 to 29%; pest or weed control at 70 g/ha [2, 11]: 0 to 29%; pest or weed control at 140 g/ha [2, 11]: 0 to 29%; pest or weed control at 35 g/ha [2, 12]: 0 to 29%; pest or weed control at 70 g/ha [2, 12]: 0 to 29%; pest or weed control at 140 g/ha [2, 12]: 0 to 29%; pest or weed control at 35 g/ha [2, 13]: 0 to 29%; pest or weed control at 70 g/ha [2, 13]: 0 to 29%; pest or weed control at 140 g/ha [2, 13]: 0 to 29%; pest or weed control at 35 g/ha [2, 14]: 0 to 29%; pest or weed control at 70 g/ha [2, 14]: 0 to 29%; pest or weed control at 140 g/ha [2, 14]: 0 to 29% |
| COC(=O)c1nc(-c2cc3c(cc2F)OCO3)c(F)c(N)c1Cl [Compound 16] | 45 to 59 | 60 to 74 | 60 to 74 | 30 to 44 | 60 to 74 | 85 to 94 | 85 to 94 | 85 to 94 | 95 to 100 | 85 to 94 | 95 to 100 | 95 to 100 | 60 to 74 | 60 to 74 | 75 to 84 | 95 to 100 | 95 to 100 | 95 to 100 | 60 to 74 | 60 to 74 | pest or weed control at 140 g/ha [2, 9]: 75 to 84%; pest or weed control at 35 g/ha [2, 10]: 60 to 74%; pest or weed control at 70 g/ha [2, 10]: 60 to 74%; pest or weed control at 140 g/ha [2, 10]: 60 to 74%; pest or weed control at 35 g/ha [2, 11]: 30 to 44%; pest or weed control at 70 g/ha [2, 11]: 45 to 59%; pest or weed control at 140 g/ha [2, 11]: 75 to 84%; pest or weed control at 35 g/ha [2, 12]: 0 to 29%; pest or weed control at 70 g/ha [2, 12]: 0 to 29%; pest or weed control at 140 g/ha [2, 12]: 0 to 29%; pest or weed control at 35 g/ha [2, 13]: 0 to 29%; pest or weed control at 70 g/ha [2, 13]: 30 to 44%; pest or weed control at 140 g/ha [2, 13]: 45 to 59%; pest or weed control at 35 g/ha [2, 14]: 0 to 29%; pest or weed control at 70 g/ha [2, 14]: 45 to 59%; pest or weed control at 140 g/ha [2, 14]: 45 to 59% |
| Nc1c(F)c(-c2cc(F)c3c(c2)OC(F)(F)O3)nc(C(=O)O)c1Cl [Compound 18] | 0 to 29 | 0 to 29 | 0 to 29 | 0 to 29 | 0 to 29 | 0 to 29 | 0 to 29 | 0 to 29 | 0 to 29 | 0 to 29 | 0 to 29 | 45 to 59 | 0 to 29 | 0 to 29 | 0 to 29 | 0 to 29 | 0 to 29 | 0 to 29 | 45 to 59 | 60 to 74 | pest or weed control at 140 g/ha [2, 9]: 60 to 74%; pest or weed control at 35 g/ha [2, 10]: 45 to 59%; pest or weed control at 70 g/ha [2, 10]: 45 to 59%; pest or weed control at 140 g/ha [2, 10]: 60 to 74%; pest or weed control at 35 g/ha [2, 11]: 0 to 29%; pest or weed control at 70 g/ha [2, 11]: 30 to 44%; pest or weed control at 140 g/ha [2, 11]: 60 to 74%; pest or weed control at 35 g/ha [2, 12]: 0 to 29%; pest or weed control at 70 g/ha [2, 12]: 0 to 29%; pest or weed control at 140 g/ha [2, 12]: 0 to 29%; pest or weed control at 35 g/ha [2, 13]: 0 to 29%; pest or weed control at 70 g/ha [2, 13]: 45 to 59%; pest or weed control at 140 g/ha [2, 13]: 45 to 59%; pest or weed control at 35 g/ha [2, 14]: 0 to 29%; pest or weed control at 70 g/ha [2, 14]: 0 to 29%; pest or weed control at 140 g/ha [2, 14]: 0 to 29% |
